Key:
Format in all cases: cell-based
A431 cells = experiment: In vitro tumor cell proliferation assay (Cell Titer-Glo) in A431 cells; details: Homo sapiens, A-431, 72 h, A431 human epidermoid carcinoma overexpressing HER1; 72 hours exposure; read-out: IC50, activities in A431 cell lines
Method in brief: (§1)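 Viability after 72 h drug exposure at 37 °C was read as CellTiter-Glo ATP luminescence, giving IC50. Cells (2.5×10^3/well, RPMI + 10% FBS) were compound-treated one day post-seeding, 0.1% DMSO final: A431 overexpresses HER1, N87 overexpresses HER2 and HER1.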

N87 = experiment: In vitro tumor cell proliferation assay (Cell Titer-Glo) in N87 cells; details: N87 human gastric carcinoma overexpressing HER2 and HER1; 72 hours exposure; read-out: IC50, activities in N87 cell lines
Method in brief: as §1

H1975 cells = experiment: In vitro tumor cell proliferation assay (Cell Titer-Glo) in H1975 cells; details: NCI-H1975; H1975 human NSCLC expressing mutant HER1 (L858R,T790M); 72 hours exposure; read-out: IC50, activities in H 1975 cell lines
Method in brief: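 After 72 h compound exposure at 37° C (top 10 uM down to 64 pM, 0.1% DMSO), viability of EGFR L858R/T790M-mutant H1975 cells was read as ATP luminescence.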

IC50 (A431 cells) [nM]	IC50 (N87) [nM]	IC50 (H1975 cells) [nM]	Compound
1000 to 10000	< 200	200 to 1000	O=C(/C=C/CN1CCOCC1)N1CCc2c(sc3ncnc(Nc4ccc(OCc5cccnc5)c(Cl)c4)c23)C1 [Example 89, N-[3-chloro-4-(pyridin-3-ylmethoxy)phenyI]-7-[(2E)-4-morpholin-4-ylbut-2-enoyl]-5,6,7,8-tetrahydropyrido [4′,3′:4,5]thieno[2,3-d]pyrimidin-4-amine]
1000 to 10000	< 200	200 to 1000	CC(C)N(C)C/C=C/C(=O)N1CCc2c(sc3ncnc(Nc4ccc(OCc5cccnc5)c(Cl)c4)c23)C1 [Example 91, N-[3-chloro-4-(pyridin-3-ylmethoxy)phenyl]-7-{(2E)-4-[isopropyl(methyl)amino]but-2-enoyl}-5,6,7,8-tetrahydropyrido [4′,3′:4,5]thieno[2,3-d]pyrimidin-4-amine]
1000 to 10000	< 200	200 to 1000	O=C(/C=C/CN1CCCCC1)N1CCc2c(sc3ncnc(Nc4ccc5c(ccn5Cc5ccccc5)c4)c23)C1 [Example 96, N-(1-benzyl-1H-indol-5-yl)-7-[(2E)-4-piperidin-1-ylbut-2-enoyl]-5,6,7,8-tetrahydropyrido [4′,3′:4,5]thieno[2,3-d]pyrimidin-4-amine]
200 to 1000	< 200	200 to 1000	CCN(CC)C/C=C/C(=O)N1CCc2c(sc3ncnc(Nc4ccc5c(cnn5Cc5cccc(F)c5)c4)c23)C1 [Example 99, 7-[(2E)-4-(diethylamino)but-2-enoyl]-N-[1-(3-fluorobenzyl)-1H-indazol-5-yl]5,6,7,8-tetrahydropyrido [4′,3′:4,5]thieno[2,3-d]pyrimidin-4-amine]
200 to 1000	< 200	200 to 1000	O=C(/C=C/CN1CCCCC1)N1CCc2c(sc3ncnc(Nc4ccc5c(cnn5Cc5cccc(F)c5)c4)c23)C1 [Example 101]
200 to 1000	< 200	200 to 1000	O=C(/C=C/CN1CCCCC1)N1CCc2c(sc3ncnc(Nc4ccc5c(cnn5Cc5ccccc5)c4)c23)C1 [Example 104, N-(1-benzyl-1H-indazol-5-yl)-7-[(2E)-4-piperidin-1-ylbut-2-enoyl]-5,6,7,8-tetrahydropyrido [4′,3′:4,5]thieno[2,3-d]pyrimidin-4-amine]
< 200	< 200	200 to 1000	O=C(/C=C/CN1CCCCC1)N1CCc2c(sc3ncnc(Nc4ccc5c(ccn5Cc5cccc(F)c5)c4)c23)C1 [Example 106, N-[1-(3-fluorobenzyl)-1H-indol-5-yl)-7-[(2E)-4-piperidin-1-ylbut-2-enoyl]-5,6,7,8-tetrahydropyrido [4′,3′:4,5]thieno[2,3-d]pyrimidin-4-amine]
< 200	< 200	< 200	CC(C)N(C)C/C=C/C(=O)N1CCc2c(sc3ncnc(Nc4ccc5c(cnn5Cc5ccccc5)c4)c23)C1 [Example 107, N-(1-benzyl-1H-indazol-5-yl)-7-{(2E)-4-[isopropyl(methyl)amino]but-2-enoyl}-5,6,7,8-tetrahydropyrido [4′,3′:4,5]thieno[2,3-d]pyrimidin-4-amine]
200 to 1000	< 200	200 to 1000	CN(C)C/C=C/C(=O)N1CCc2c(sc3ncnc(Nc4ccc5c(cnn5Cc5ccccn5)c4)c23)C1 [Example 109, 7-[(2E)-4-(dimethylamino)but-2-enoyl]-N-[1-(pyridin-2-ylmethyl)-1H-indazol-5-yl]-5,6,7,8-tetrahydropyrido [4′,3′:4,5]thieno[2,3-d]pyrimidin-4-amine]
200 to 1000	< 200	200 to 1000	CCN(CC)C/C=C/C(=O)N1CCc2c(sc3ncnc(Nc4ccc5c(cnn5Cc5ccccn5)c4)c23)C1 [Example 111, 7-[(2E)-4-(diethylamino)but-2-enoyl]-N-[1-(pyridin-2-ylmethyl)-1H-indazol-5-yl]-5,6,7,8-tetrahydropyrido [4′,3′:4,5]thieno[2,3-d]pyrimidin-4-amine]

Second part, the molecule before the results:

Compound	IC50 (A431 cells) [nM]	IC50 (N87) [nM]	IC50 (H1975 cells) [nM]
O=C(/C=C/CN1CCCCC1)N1CCc2c(sc3ncnc(Nc4ccc(OCc5cccnc5)c(Cl)c4)c23)C1 [Example 88, N-[3-chloro-4-(pyridin-3-ylmethoxy)phenyl]-7-[(2E)-4-piperidin-1-ylbut-2-enoyl]-5,6,7,8-tetrahydropyrido [4′3′:4,5]thieno[2,3-d]pyrimidin-4-amine]	1000 to 10000	< 200	200 to 1000
CCN(C)C/C=C/C(=O)N1CCc2c(sc3ncnc(Nc4ccc(OCc5cccnc5)c(Cl)c4)c23)C1 [Example 90, N-[3-chloro-4-(pyridin-3-ylmethoxy)phenyl]-7-{(2E)-4-[ethyl(methyl)amino]but-2-enoyl}-5,6,7,8-tetrahydropyrido [4′,3′:4,5]thieno[2,3-d]pyrimidin-4-amine]	1000 to 10000	< 200	200 to 1000
CN(C)C/C=C/C(=O)N1CCc2c(sc3ncnc(Nc4ccc5c(cnn5Cc5cccc(F)c5)c4)c23)C1 [Example 92, 7-[(2E)-4-(dimethylamino)but-2-enoyl]-N-[1-(3-fluorobenzyl)-1H-indazol-5-yl]-5,6,7,8-tetrahydropyrido [4′,3′:4,5]thieno[2,3-d]pyrimidin-4-amine]	< 200	< 200	< 200
CN(C)C/C=C/C(=O)N1CCc2c(sc3ncnc(Nc4ccc5c(ccn5Cc5ccccc5)c4)c23)C1 [Example 93, N-(1-benzyl-1H-indol-5-yl)-7-[(2E)-4-(dimethylamino)but-2-enoyl]-5,6,7,8-tetrahydropyrido [4′,3′:4,5]thieno[2,3-d]pyrimidin-4-amine]	200 to 1000	< 200	< 200
CCN(CC)C/C=C/C(=O)N1CCc2c(sc3ncnc(Nc4ccc5c(ccn5Cc5ccccc5)c4)c23)C1 [Example 94, N-(1-benzyl-1H-indol-5-yl)-7-[(2E)-4-(diethylamino)but-2-enoyl]-5,6,7,8-tetrahydropyrido [4′,3′:4,5]thieno[2,3-d]pyrimidin-4-amine]	200 to 1000	< 200	200 to 1000
CCN(CC)C/C=C/C(=O)N1CCc2c(sc3ncnc(Nc4ccc5c(cnn5Cc5ccccc5)c4)c23)C1 [Example 95, N-(1-benzyl-1H-indazol-5-yl)-7-[(2E)-4-(diethylamino)but-2-enoyl]-5,6,7,8-tetrahydropyrido [4′,3′:4,5]thieno[2,3-d]pyrimidin-4-amine]	200 to 1000	< 200	200 to 1000
CN(C)C/C=C/C(=O)N1CCc2c(sc3ncnc(Nc4ccc5c(cnn5Cc5ccccc5)c4)c23)C1 [Example 97, N-(1-benzyl-1H-indazol-5-yl)-7-[(2E)-4-(dimethylamino)but-2-enoyl]-5,6,7,8-tetrahydropyrido [4′,3′:4,5]thieno[2,3-d]pyrimidin-4-amine]	200 to 1000	< 200	200 to 1000
CN(C)C/C=C/C(=O)N1CCc2c(sc3ncnc(Nc4ccc5c(ccn5Cc5cccc(F)c5)c4)c23)C1 [Example 98, 7-[(2E)-4-(dimethylamino)but-2-enoyl]-N-[1-(3-fluorobenzyl)-1H-indol-5-yl]-5,6,7,8-tetrahydropyrido [4′,3′:4,5]thieno[2,3-d]pyrimidin-4-amine]	200 to 1000	< 200	< 200
CCN(CC)C/C=C/C(=O)N1CCc2c(sc3ncnc(Nc4ccc5c(ccn5Cc5cccc(F)c5)c4)c23)C1 [Example 100, 7-[(2E)-4-(diethylamino)but-2-enoyl]-N-[1-(3-fluorobenzyl)-1H-indol-5-yl]-5,6,7,8-tetrahydropyrido [4′,3′:4,5]thieno[2,3-d]pyrimidin-4-amine]	200 to 1000	< 200	200 to 1000
O=C(/C=C/CN1CCOCC1)N1CCc2c(sc3ncnc(Nc4ccc5c(cnn5Cc5cccc(F)c5)c4)c23)C1 [Example 102, N-[1-(3-fluorobenzyl)-1H-indazol-5-yl]-7-[(2E)-4-morpholin-4-ylbut-2-enoyl]-5,6,7,8-tetrahydropyrido [4′,3′:4,5]thieno[2,3-d]pyrimidin-4-amine]	200 to 1000	< 200	1000 to 10000
O=C(/C=C/CN1CCOCC1)N1CCc2c(sc3ncnc(Nc4ccc5c(cnn5Cc5ccccc5)c4)c23)C1 [Example 103, N-(1-benzyl-1H-indazol-5-yl)-7-[(2E)-4-morpholin-4-ylbut-2-enoyl]-5,6,7,8-tetrahydropyrido [4′,3′:4,5]thieno[2,3-d]pyrimidin-4-amine]	200 to 1000	< 200	1000 to 10000
O=C(/C=C/CN1CCOCC1)N1CCc2c(sc3ncnc(Nc4ccc5c(ccn5Cc5ccccc5)c4)c23)C1 [Example 105, N-(1-benzyl-1H-indol-5-yl)-7-[(2E)-4-morpholin-4-ylbut-2-enoyl]-5,6,7,8-tetrahydropyrido [4′,3′:4,5]thieno[2,3-d]pyrimidin-4-amine]	< 200	< 200	200 to 1000
O=C(/C=C/CN1CCOCC1)N1CCc2c(sc3ncnc(Nc4ccc5c(ccn5Cc5cccc(F)c5)c4)c23)C1 [Example 108, N-[1-(3-fluorobenzyl)-1H-indol-5-yl]-7-[(2E)-4-morpholin-4-ylbut-2-enoyl]-5,6,7,8-tetrahydropyrido [4′,3′:4,5]thieno[2,3-d]pyrimidin-4-amine]	< 200	< 200	200 to 1000

Source: US8501755B2, “Tetrahydropyridothienopyrimidine compounds and methods of use thereof” (Bayer Intellectual Property GmbH, priority 2006, dated 2013)
